The record followed here is patent US11034751B1, “Methods and compositions for treating cancer using serotonin receptor inhibitors” (Flagship Pioneering Innovations V, Inc., priority 2018, dated 2021).

Structures are written as SMILES.

The test system of this assay is macrophages. Nature of the assay: IL8 secretion by macrophages incubated with serotonin receptor agonists (bead-based immunoassay). It is filed as cell-based. Conditions: human monocyte-derived macrophages (M-CSF). As for the experimental part: CD14+ monocytes were isolated from human PBMCs using negative magnetic bead selection (Stemcell Technologies) on day 0. Cells were cultured with M-CSF to differentiate monocytes to macrophages. On day 6, cells were treated with LP44 (high affinity 5-HT7 agonist), BW 723C86 hydrochloride (5-HT2B agonist), MK 212 hydrochloride (5-HT2C agonist) (Sigma-Aldrich), at concentrations 1 μM and 10 μM overnight. Supernatant was collected and bead-based immunoassays (Biolegend) were performed to detect changes in cytokine secretion.
Across multiple human donors, secretion of the inflammatory cytokine, IL8, by macrophages was decreased after addition of each of the HTR2B, HTR2C, and HTR7 agonists, as show in Table 18 below.

`CC(N)Cc1c[nH]c2ccc(OCc3cccs3)cc12.Cl` (stereo not drawn) [BW723086]: the “Fold change of IL-8 (Normalized to Macs + LPS with no compound treatment)” value is, setting by setting: (1 μM overnight) 0.670; (10 μM overnight) 0.508.
For `CSc1ccccc1N1CCN(CCCCCC(=O)NC2CCCc3ccccc32)CC1` (stereo not drawn) [LP44], in that order: 0.340 and 0.427.
For `Clc1cncc(N2CCNCC2)n1` [MK212], in that order: 0.502 and 0.484.
